{
  "source": "patent US12410391B2",
  "about": "“In vitro cell culture mucus systems” (The University of North Carolina at Chapel Hill, priority 2018, dated 2025)",
  "system": "human colonic epithelium (monolayer from human colonic stem cells)",
  "assay": "VIP-stimulated water secretion into the apical reservoir under ALI culture",
  "assay_type": "cell-based",
  "method": "The inserts were rinsed with PBS×1 prior to cell plating. Intestinal epithelial cells were passaged according to the procedure described above except that the cells were suspended in expansion medium (EM-Table 1) and plated directly onto the top compartment of Transwell inserts. Cells from 1 well of the 6-well plate were dispersed into 6 separate 12-well Transwell inserts (1 mL in the upper [apical] reservoir, and 2 mL in the lower [basal] reservoir). The medium was exchanged every 48 h. To induce cell differentiation and mucus production, the medium was switched to differentiation medium (DM-Table 1) after 5 days. In the submerged culture, 1 mL DM was added in the apical reservoir and 2 mL in the basal reservoir. The medium was exchanged every 48 h thereafter. In the ALI culture, the medium in the apical reservoir was completely aspirated, 1 mL DM or DM-VIP (DM containing 330 ng/mL VIP [AnaSpec, #AS-22872]) was added to the basal reservoir, and medium was exchanged every 24 h thereafter. By day 10, the system was suitable for characterization and cytokine assay.\nTo verify the function of VIP to stimulate water secretion, human colonic stem cells were cultured under EM for 5 days. At day 5, the basal medium was switched to DM with varying VIP concentration and the cells placed under the ALI culture conditions. After 24 h, the water accumulated in the apical reservoir was collected and weighed with an analytical balance. In the absence of VIP, the accumulation of water in the apical reservoir was not measurable. […] A plateau was reached when VIP concentration was >1 ng/mL. At this saturating concentration, approximately 42 mg/cm^2 water accumulated after a 24 h incubation with VIP, corresponding to a water depth in the reservoir of 420 μm.",
  "data": [
    {"substance": "vasoactive intestinal peptide [VIP]", "values": [
      {"measurement": "VIP concentration at which plateau of water secretion was reached", "setting": "ALI culture, 24 h", "value": "> 1", "unit": "ng/mL"},
      {"measurement": "water accumulated in apical reservoir", "setting": "saturating VIP concentration, 24 h incubation", "value": "approximately 42 mg/cm^2"},
      {"measurement": "water depth in the reservoir", "setting": "saturating VIP concentration, 24 h incubation, corresponds to the accumulated water", "value": 420, "unit": "μm"}
    ]}
  ]
}
